Experimental data reported in patent US20200246241A1, “COSMETIC COMPOSITION FOR BLOCKING FINE DUST” (LG HOUSEHOLD & HEALTH CARE LTD., priority 2017, published 2020).
“Also recorded” adds a separate entry of the source.

assay: Estimation of fine dust attachment on PMMA plate coated with artificial sebum; settings: compared to control group or other compounds
Description: 1) Method for Estimating Fine Dust Attachment
i) After applying artificial sebum of 1.3 mg/cm^2 on a PMMA plate, it was dried for 15 minutes.
ii) After applying a test formulation on the dried artificial sebum in the same amount, it was dried for 15 minutes (Noting was applied on the control group).
iii) The PMMA plate was attached on the internal top of the self-made chamber, and a pan on the bottom of the chamber was operated for 5 minutes, to expose 0.5 g substitutive fine dusts (brand name LM-YG0510, comprising strontium carbonate, alumina, europium oxide, and dysprosium oxide).
iv) Using a magnifying glass (Aphrodite-3, 50×), UV images were photographed (measuring 4 points per plate).
v) Using ImagePro Plus, the area of dust attachment was measured.
vi) The fine dust attachment rate was calculated by comparing the sample with the result of 3 times of experiments (Setting the fine dust attachment rate of the control group to 100).

Row | Molecule | effect of preventing fine dust attachment (in words)
1 | Nc1nc(N)nc(N)n1 [melamine, 1,3,5-triazine-2,4,6-triamine] | excellent effect of preventing fine dust attachment
2 | CCCCC(CC)COC(=O)c1ccc(Nc2nc(Nc3ccc(C(=O)OCC(CC)CCCC)cc3)nc(Nc3ccc(C(=O)OCC(CC)CCCC)cc3)n2)cc1 (stereo not drawn) [ethylhexyl triazone] | excellent effect of preventing fine dust attachment; also recorded: excellent effect of reducing fine dust attachment
3 | O=S(=O)([O-])c1cc(S(=O)(=O)O)cc2[nH]c(-c3ccc(-c4nc5c(S(=O)(=O)[O-])cc(S(=O)(=O)O)cc5[nH]4)cc3)nc12.[Na+].[Na+] [disodium phenyl dibenzimidazole tetrasulfonate] | excellent effect of preventing fine dust attachment; also recorded: excellent effect of reducing fine dust attachment
4 | CC(C)(C)CC(C)(C)c1cc(Cc2cc(C(C)(C)CC(C)(C)C)cc(-n3nc4ccccc4n3)c2O)c(O)c(-n2nc3ccccc3n2)c1 [Methylene Bis-Benzotriazolyl tetramethyl butylphenol] | excellent effect of preventing fine dust attachment; also recorded: excellent effect of reducing fine dust attachment
5 | CCCCC(CC)COC(=O)c1ccc(Nc2nc(Nc3ccc(C(=O)NC(C)(C)C)cc3)nc(Nc3ccc(C(=O)OCC(CC)CCCC)cc3)n2)cc1 (stereo not drawn) [Diethylhexyl butamido triazone] | excellent effect of preventing fine dust attachment; also recorded: excellent effect of reducing fine dust attachment
6 | trisbiphenyl triazine | excellent effect of preventing fine dust attachment; also recorded: excellent effect of reducing fine dust attachment
